According to US9469643B2, “Polymorphic forms of (S)-2-(1-(9H-purin-6-ylamino)propyl)-5-fluoro-3-phenylquinazolin-4(3H)-one” (GILEAD CALISTOGA LLC, priority 2012, dated 2016):
Converted amounts (≈) assume the structure as drawn. Read-outs that look alike come from different tables or passages of the source.

What was measured:
Assay type in all cases: physicochemical
[1] = Compression of Form I in hydraulic tablet press, XRPD
Experimental: Form I of (S)-2-(1-(9H-purin-6-ylamino)propyl)-5-fluoro-3-phenylquinazolin-4(3H)-one was subjected to high pressure in a hydraulic tablet press (ENERPAC Model P142 hydraulic press; #9166 0.275 inch punch) as shown in Table 3 below. The relaxation time is the time between compressions. A sample of the compressed solids was analyzed by XRPD and DSC. FIGS. 2A and 2B depict the XRPD and DSC patterns of polymorphic Form II.

[2] = Hydrate screen in ethanol/water system: solid form
Experimental: (§1) About 50 mg of Form I of (S)-2-(1-(9H-purin-6-ylamino)propyl)-5-fluoro-3-phenylquinazolin-4(3H)-one was slurried in either (A) a 1-mL mixture of a isopropyl alcohol (IPA) and water, or (B) a 1-mL mixture of ethanol and water, for several days at room temperature. As used herein, water activity (aw) in liquid phase corresponds to relative humidity in the atmosphere. For example, 0.5 aw is equivalent to 50% relative humidity.
Form VII of (S)-2-(1-(9H-purin-6-ylamino)propyl)-5-fluoro-3-phenylquinazolin-4(3H)-one was a mixed water/ethanol solvate.

[3] = Conversion of ball milled Form I into Form II in acetone slurry (XRPD); details: 10 g ball milled at 30 Hz for 10 minutes, stirred in 300 mL acetone at 28° C.
Experimental: Form I was prepared as described in Example 1. Form I solids were ball milled in batches for 10 minutes at 30 Hz. Samples were analyzed by XRPD. Table 1 below summarizes the amount of polymorphic Form II observed from conversion of polymorphic Form I. Additionally, 10 g of Form I was ball milled at 30 Hz for 10 minutes and stirred in 300 mL of acetone at 28° C.

[4] = Hydrate screen in IPA/water system: solid form by XRPD
Experimental: XRPD patterns were collected using a PANalytical X'Pert MPD Pro Powder X-Ray Diffractometer configured with reflectance stage with spinning, data acquisition range: 2-40 degrees 2θ, Copper (Cu) anode; Kα1/Kα2 radiation; tube current 40 mA; tube tension 45 kV; automatic divergence and anti-scatter slits. Samples were prepared for analysis by distributing solid material as a thin layer on a silicon holder. Each holder was mounted on a reflectance/transmittance stage and rotated during data acquisition.
as §1

[5] = Dry and wet grinding experiments: conversion of Form I into Form II in slurry
Experimental: Form I of (S)-2-(1-(9H-purin-6-ylamino)propyl)-5-fluoro-3-phenylquinazolin-4(3H)-one was pre-processed using various grinding methods before forming a slurry in either acetone or THF and stirring at either room temperature, 22° C. or 30° C. As used in this Example, “enriched” describes a sample that contains substantially more Form II than Form I.

[6] = Effect of temperature on form conversion of solids (DSC, heating, XRPD)
Experimental: DSC indicated close melting points for each polymorph and a solid-solid transition in Form II at about 115° C. to produce Form I. To confirm this finding, […] of Form I of (S)-2-(1-(9H-purin-6-ylamino)propyl)-5-fluoro-3-phenylquinazolin-4(3H)-one was heated at 50° C., 60° C., 70° C., 80° C., 90° C., 100° C., 110° C. and 120° C. jacket temperature using Destiny for 22 hours.

[7] = Hydrate screen in IPA/water system: solubility of slurried Form I; details: isopropyl alcohol/water mixture, organic solvent or mixture, thermodynamic from solid; for solubility: read-out: 15-16 Day Solubility
Experimental: as §1

[8] = Form I suspensions in acetone at different temperatures: form conversion; details: magnetic stirring
Experimental: Form I of (S)-2-(1-(9H-purin-6-ylamino)propyl)-5-fluoro-3-phenylquinazolin-4(3H)-one was suspended in acetone at a concentration of 50 mg/mL, and stirred magnetically over a period of 5-6 days. Four experiments at different temperature were conducted.
Table 4 summarizes the reaction conditions and the amount of polymorphic forms observed for each of the four experiments. As used in this Example, “Enriched II” described a sample that contains substantially more Form II than Form I.

[9] = Form I slurried in IPA/water aw 0.2, room temperature
[10] = Form I slurried in IPA/water aw 0.3, room temperature
[11] = Form I slurried in IPA/water aw 0.4, room temperature
[12] = Form I slurried in IPA/water aw 0.5, room temperature
[13] = Form I slurried in IPA/water aw 0.6, room temperature
[14] = Form I slurried in IPA/water aw 0.7, room temperature
[15] = Form I slurried in IPA/water aw 0.8, room temperature
[16] = Form I slurried in IPA/water aw 0.9, room temperature
[17] = IPA/water aw 0.2, room temperature, solid by XRPD Form I & II
[18] = IPA/water aw 0.3, room temperature, solid by XRPD Form I & II
[19] = IPA/water aw 0.4, room temperature, solid by XRPD Form I & II
[20] = IPA/water aw 0.5, room temperature, solid by XRPD Form I & II
[21] = IPA/water aw 0.6, room temperature, solid by XRPD Form I & II

For `CC[C@H](Nc1ncnc2[nH]cnc12)c1nc2cccc(F)c2c(=O)n1-c1ccccc1` [Form I, (S)-2-(1-(9H-purin-6-ylamino)propyl)-5-fluoro-3-phenylquinazolin-4(3H)-one], the “XRPD (forms observed)” value ([1]; 163 mg, 2000 psi, 5 min, relaxation time 72 hours) was “I & II (~1:1)”, the “XRPD (forms observed)” value ([1]; 164 mg, 3000 psi, 5 min, relaxation time 2 hours) was “I & II (~1:1)” and the “XRPD (forms observed)” value ([1]; 167 mg, 2000 psi, 10 min, relaxation time 72 hours) was “I & II (~1:1)”. The “XRPD (forms observed)” value ([1]; 168 mg, 3000 psi, 10 min, relaxation time 2 hours) was “I & II (~1:1)”, the “XRPD (forms observed)” value ([1]; 171 mg, 3000 psi, 60 min, relaxation time 72 hours) was “I & II (excess” and the “XRPD (forms observed)” value ([1]; amount NA, atm pressure, no compression) was “Form I &”. For the same compound, the “conversion of Form I to Form II” value ([1]; compressed at 3000 psi for 60 minutes (FIG. 5C)) was “over 50%”, the “XRPD (forms observed)” value ([1]; ~150 mg, 1000 psi, <0.5 min, relaxation time 24 hours) was “Form I and II” and the “XRPD (forms observed)” value ([1]; ~150 mg, atm pressure, no compression) was “Form I and II”. For the same compound, the “XRPD (forms observed)” value ([1]; ~160 mg, 4500 psi, <0.5 min) was “Form I and II”, the “Form (solid form after slurry)” value ([2]; Form I slurried in ethanol/water aw 0.9, several days, room temperature) was “I & VII” and the “Form conversion in ethanol/water system” value ([2]; water activity 0.5 and 0.6, room temperature (data not shown in Table 6)) was “no conversion”. The “Form conversion in ethanol/water system” value ([2]; water activity from 0.2 to 0.4, room temperature (data not shown in Table 6)) was “slowly converted to Form II”, the “conversion of Form I into Form II” value ([3]; after 18 hours) was “about 50%” and the “conversion of Form I into Form II” value ([3]; after 40 hours) was “about 90%”. For the same compound, the “15-16 Day XRPD (solid form)” value [4, 9] was “Form I & II”, the “48 Hour XRPD (solid form)” value [4, 9] was “Form I & II” and the “15-16 Day XRPD (solid form)” value [4, 10] was “Form I & II”. For the same compound, the “48 Hour XRPD (solid form)” value [4, 10] was “Form I & II”, the “15-16 Day XRPD (solid form)” value [4, 11] was “Form I & II” and the “48 Hour XRPD (solid form)” value [4, 11] was “Form I & II”. The “15-16 Day XRPD (solid form)” value [4, 12] was “Form I & II”, the “48 Hour XRPD (solid form)” value [4, 12] was “Form I & II” and the “15-16 Day XRPD (solid form)” value [4, 13] was “Form I & II”. The “48 Hour XRPD (solid form)” value [4, 13] was “Form I & II”, the “15-16 Day XRPD (solid form)” value [4, 14] was “Form III” and the “48 Hour XRPD (solid form)” value [4, 14] was “Form III”. For the same compound, the “15-16 Day XRPD (solid form)” value [4, 15] was “Form III”, the “48 Hour XRPD (solid form)” value [4, 15] was “Form III” and the “15-16 Day XRPD (solid form)” value [4, 16] was “Form III”. For the same compound, the “48 Hour XRPD (solid form)” value [4, 16] was “Form III”, the “Form II content” value ([5]; 0.2 g, dry/wet grinding, acetone slurry, r.t., magnetic stirring, after 1 day) was “Enriched after 1 day” and the “Form II content” value ([5]; 0.2 g, dry/wet grinding, acetone slurry, r.t., magnetic stirring, after 2 days) was “Highly enriched after 2 days”. The “Form II content” value ([5]; 1 g, dry/wet grinding, acetone slurry, r.t., magnetic stirring, after 1 week) was “Trace amount after 1 week”, the “Form II content” value ([5]; 1 g, high shear mixer (dry), THF slurry, r.t., magnetic stirring, after 1 day) was “Trace amount after 1 day” and the “Form II content” value ([5]; 1 g, high shear mixer (dry), acetone slurry, r.t., magnetic stirring, after 1 day) was “Trace amount after 1 day”. The “Form II content” value ([5]; 1 g, jet milled, acetone slurry, 22 ° C., magnetic stirring, after 1 day) was “Small amount after 1 day”, the “Form II content” value ([5]; 1 g, jet milled, acetone slurry, 22 ° C., magnetic stirring, after 4 days) was “Enriched after 4 days” and the “Form II content” value ([5]; 5 g, high shear wet mill, acetone slurry, 30 ° C., overhead stirring, after 3 days) was “Undetectable after 3 days”. For the same compound, the “Form II content” value ([5]; 20 g, dry grinding, acetone slurry, 30 ° C., overhead stirring, after 3 days) was “Undetectable after 3 days”, the “temperature at which form conversion of heated solids was observed” value ([6]; solids heated at 50-120° C. jacket temperature for 22 hours, XRPD (FIG. 6)) was “around 90 °C” and the solubility at 48 h [7, 17] was 24 mg/mL (≈ 57.8 mM). The solubility [7, 17] was 20 mg/mL (≈ 48.1 mM), the solubility at 48 h [7, 18] was 19 mg/mL (≈ 45.7 mM) and the solubility [7, 18] was 19 mg/mL (≈ 45.7 mM). It also gave a solubility at 48 h [7, 19] of 18 mg/mL (≈ 43.3 mM), a solubility [7, 19] of 20 mg/mL (≈ 48.1 mM) and a solubility at 48 h [7, 20] of 23 mg/mL (≈ 55.4 mM). It also gave a solubility [7, 20] of 20 mg/mL (≈ 48.1 mM), a solubility at 48 h [7, 21] of 23 mg/mL (≈ 55.4 mM) and a solubility [7, 21] of 24 mg/mL (≈ 57.8 mM). For the same compound, the solubility at 48 h ([7]; IPA/water aw 0.7, room temperature, solid by XRPD Form III) was 9.8 mg/mL (≈ 23.6 mM), the solubility at 48 h ([7]; IPA/water aw 0.8, room temperature, solid by XRPD Form III) was 11 mg/mL (≈ 26.5 mM) and the “Form observed after suspension in acetone” value (shortened to “Form observed”) ([8]; 50 mg/mL, 30 ° C., suspension time 5 days) was “Enriched II”. The “Form observed” value ([8]; 51 mg/mL, 27 ° C., suspension time 5 days) was “Enriched II”, the “Form observed” value ([8]; 52 mg/mL, 33 ° C., suspension time 6 days) was “Form I” and the “Form observed” value ([8]; 52 mg/mL, 37 ° C., suspension time 6 days) was “Form I”.
In the case of `CC[C@H](Nc1ncnc2[nH]cnc12)c1nc2cccc(F)c2c(=O)n1-c1ccccc1` [Form II, (S)-2-(1-(9H-purin-6-ylamino)propyl)-5-fluoro-3-phenylquinazolin-4(3H)-one], the “solid-solid transition temperature (to produce Form I)” value ([6]; by DSC) is reported as “about 115 °C”.
